Entries after “also recorded” stand apart in the source; their conditions may differ.
Experiments:
[1] = system: muscarinic cholinergic receptor; settings: background statement; cited from earlier work
[2] = partition coefficient between 1-octanol and 0.1M phosphate; assay type: physicochemical; settings: 1-octanol / 0.1M phosphate
M2 receptors = biological target: T1, M2 receptors (Rattus norvegicus, UniProt P10980); assay: inhibition of [^3 H]AF-DX-384 binding to M2 receptors in the rat brain
T1 construct: from tissue; host or cells: rat brain
T1 sequence (P10980 1-466): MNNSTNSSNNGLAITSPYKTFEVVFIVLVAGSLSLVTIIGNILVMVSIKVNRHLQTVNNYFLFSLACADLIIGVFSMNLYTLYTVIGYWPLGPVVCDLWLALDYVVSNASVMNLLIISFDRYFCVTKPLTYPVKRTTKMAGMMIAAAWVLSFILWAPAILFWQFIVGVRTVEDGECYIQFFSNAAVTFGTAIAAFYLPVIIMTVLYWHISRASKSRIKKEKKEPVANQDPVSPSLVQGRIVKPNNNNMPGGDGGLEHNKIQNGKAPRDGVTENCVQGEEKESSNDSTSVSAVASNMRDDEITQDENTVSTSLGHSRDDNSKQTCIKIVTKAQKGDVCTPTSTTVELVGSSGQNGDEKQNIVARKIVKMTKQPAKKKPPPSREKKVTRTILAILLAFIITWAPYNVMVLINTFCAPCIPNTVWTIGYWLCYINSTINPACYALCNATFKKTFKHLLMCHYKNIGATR
Excerpt: FIG. 5 is a graph of the inhibition of [^3 H]AF-DX-384 binding to M2 receptors in the rat brain by PDC008.004, determined as % specific [^3 H]AFDX 384 binding versus log [PDC008.004] in nM.

mice [3] = assay: behavioral observation after intraperitoneal injection; assay type: in vivo, mouse
mice [4] = assay: Watermaze behavioral studies; assay type: in vivo, mouse (male C57 BL/6); settings: 10 mg/kg intraperitoneally
Excerpt: The following procedures are standard techniques routinely used by those skilled in the art (Morris, R. G. M., 1981)
Male C57 BL/6 mice, 30 g body weight. Minimum 50 animals. Obtainable from The Jackson Laboratories, Bar Harbor, Rt. 3, Me. 04609.
Circular water tank made of sturdy (10 mm thick, minimum) black (or very dark, opaque) lucite or other plastic. Diameter of the tank: 1 meter; Wall height: 50 cm. The tank must have a valve connected to a large diameter (min 1.5 cm inner) water filling/draining rubber hose (min. length 10 ft).
Two targets, one made of the same plastic as the water tank (the "black target"), and one made of translucent variety. Base made of heavy lucite (1 inch thick) shaped as a square with 10 inch sides. Height between the upper surface of the base and the lower surface of the target platform: 20 cm. Target platform support: 20 cm tall, circular rod (1 inch diam.). Circular target platform, 8 cm across, made of 0.5 cm thick plastic and covered with a non-skid material (surgical tape can be used) painted either black or white (depending on the target).
Regimen "A" consists of concurrent injections of either drug(s) or saline and swimming. Injections administered in a sequence: injection--24h--swim--2h--injection--24h--swim--2h--injection . . . etc., until a stable "time to target" plateau among the controls will be reached. […]

SMILES	effect on memory function [1]	partition coefficient (log P) [2]	Ki (M2 receptors)	motor activity after a single injection (mice [3]; 10 mg/kg, intraperitoneally, 24 hour period prior to behavioral testing)	signs observed in injected animals (mice [3]; 100 mg/kg intraperitoneally)	penetration into the intracerebral space (mice [3]; inferred from very swift central cholinergic mediated events, intraperitoneal)	movement pattern change in watermaze (mice [4]; 10 treated vs 10 control mice)	time required to find a hidden target (target latency) after the fourth trial (mice [4]; daily injections, mice)
CN1[C@@H]2C[C@@H](OC(=O)[C@H](CO)c3ccccc3)C[C@H]1[C@@H]1O[C@@H]12 [scopolamine]	impair memory function							
CCN(CC)CCN(CC(=O)N1c2ccccc2C(=O)Nc2cccnc21)CC1CCCCC1 [PDC 008.004, 11-[[[2-(diethylamino)ethyl]cyclohexylmethylamino]-acetyl]-5,11-dihydro-6H-pyrido [2,3-b][1,4]-benzodiazepin-6-one]		0.78±0.18	0.422 µM	increased motor activity	presence of dyskinesia, ataxia, and absence of flaccid paralysis	rapid penetration into the intracerebral space	substantial and significant (P>0.01) movement pattern change; also recorded: rapid shift from thygmotactic (wall-hugging) to center crossing and center crossing-goal oriented behavior	substantial statistically significant (P<0.05) decrease
CCN(CC)CCN(CC(=O)N1c2ccccc2C(=O)Nc2cccnc21)CC1CCCCC1.Cl [Compound 6, 11-[[[2-(Diethylamino)ethyl]cyclohexylmethylamino]-acetyl]-5,11-dihydro-6H-pyrido [2,3-b][1,4]-benzodiazepin-6-one hydrochloride salt]		0.16						

From patent US5712269A, “M2 receptor ligand for the treatment of neurological disorders” (Pharmaceutical Discovery Corporation, priority 1995, dated 1998)
